“And” between values parts separate entries of the source, which are not always exact repeats. Identical values can stand only once.
Tested on: MCF-7 cells, human transcripts
Assay: Affymetrix U133 2.0 Plus microarray analysis of gene expression
Type: cell-based
Experimental: FIG. 4 depicts microarray analysis of changes in gene expression in MCF-7 cells treated with RAR agonist LGD1550 or RAR antagonist LG100815, plotted using GeneSpring software. The X axis represents different time points of treatment with RAR ligands (0 point correspond to cells cultured for 3 days with DMSO carrier).
To determine the effects of the RAR agonist and antagonist on the expression of essentially all the human genes, MCF-7 cells were treated with 100 nM of RAR agonist LGD1550 or 10 μM of RAR antagonist LG100815, concentrations that provide maximal induction of gene expression according to Q-PCR assays (as discussed above). Cells were treated for 24, 48 or 72 hrs, and total RNA from the untreated or treated cells was isolated using Qiagen's RNeasy Total RNA Isolation Kit. For gene expression profiling, RNA samples were provided to the microarray service facility of the Wadsworth Center Genomics Institute, which carried out biotinylated target preparation and hybridization with Affymetrix U 133 2.0 Plus oligonucleotide microarrays containing 56,000 probe sets representing 48,500 human transcripts. The hybridization signals were normalized using GCRMA procedure and analyzed using GeneSpring software (Silicone Genetics). […] The effects of the agonist and the antagonist also agreed with the results of the earlier analysis of the effects of RA on MCF-7 cells, with all 13 genes previously shown by RT-PCR to be induced in that system (Dokmanovic et al., 2002) also showing induction in the present microarray analysis (FIG. 4b).
RNA or protein products of genes that are induced to a similar level by both the RAR agonist and the RAR antagonist can be used as reporters in screening for compounds with properties similar to LG0100815. RNA or protein products of genes from this group (or promoter constructs for such genes) can be used as reporters in screening for compounds that mimic the effect of retinoids. Table 3, as shown below, lists a set of 508 genes chosen as preferred reporters. These genes were selected by being strongly (at least 2-fold) induced by both the agonist and the antagonist relative to untreated cells and showing no more than two-fold difference between their induction by the agonist and the antagonist. 62 genes listed at the top of Table 3 are particularly preferred reporters, as they are most strongly (at least 4-fold) induced by both the agonist and the antagonist. Table 4, as shown below, lists a set of 53 genes that can be used as preferred markers to discriminate between RARE-dependent and RARE-independent induction of transcription. These genes were chosen by being induced at least 3-fold by the agonist relative to untreated cells and also showing at least 4 times stronger induction by the agonist than by the antagonist. FIG. 6 plots the maximal fold induction of gene expression produced by the agonist versus that produced by the antagonist for the genes listed in Table 3 (particularly preferred reporters only) and in Table 4, with the corresponding trend lines. The relative effects of a tested compound on the genes in Table 3 and Table 4 should indicate whether the compound behaves as a RAR agonist or RAR antagonist. For example, one can select matching pairs of genes from Table 3 and Table 4 that are induced by the agonist to approximately the same degree. A compound that mimics the effects of the agonist should induce such genes to a similar level, whereas a compound that behaves like an antagonist should induce the gene from Table 3 to a much greater degree than the gene from Table 4.

[1] = MCF-7, LGD1550 100 nM, 24, 48 or 72 hrs
[2] = MCF-7, LGD1550 100 nM, 24, 48 or 72 hrs, listed as agonist

Question: What does the source list for CC(/C=C/C=C(\C)c1cc(C(C)(C)C)cc(C(C)(C)C)c1)=C\C(=O)O [LGD1550]?
Answer: Maximal effect, Fold induction (Genbank AI911972, probe 230780_at): 3.89 fold; Maximal effect, Fold induction (Genbank AW268719, probe 236798_at): 2.03 fold; Maximal effect, Fold induction (Genbank AW612407, probe 230098_at): 2.32 fold; Maximal effect, Fold induction (Genbank BF038869, probe 235322_at): 2.13 fold; Maximal effect, Fold induction (Genbank CA442342, probe 1556097_at): 3.11 fold; HOXA4 fold induction by the agonist (MCF-7, LGD1550 100 nM): 7.8 fold; RBP1 fold induction by the agonist (MCF-7, LGD1550 100 nM): 4.4 fold; number of 40 RARE-containing human genes induced ≧1.5-fold (MCF-7, LGD1550 100 nM): seven; response of RARE-containing genes induced by both ligands, agonist relative to antagonist (MCF-7, LGD1550 100 nM vs LG100815 10 μM): 3-5 fold stronger; APXL2 239435_x_at fold induction, maximal effect of agonist [1]: 63.13 fold; APXL2 241935_at fold induction, maximal effect of agonist [1]: 5.82 fold; BF593636 228642_at fold induction, maximal effect of agonist [1]: 130.43 fold; CA448125 1557050_at fold induction, maximal effect of agonist [1]: 8.90 fold; CA448125 1557051_s_at fold induction, maximal effect of agonist [1]: 23.74 fold; CEACAM1 206576_s_at fold induction, maximal effect of agonist [1]: 16.23 fold; CP 228143_at fold induction, maximal effect of agonist [1]: 10.88 fold; CP 1558034_s_at fold induction, maximal effect of agonist [1]: 44.25 fold; CYP1A1 205749_at raw signal, maximal effect of agonist [1]: 35.09; GBP3 223434_at fold induction, maximal effect of agonist [1]: 7.32 fold; HOXA3 230080_at fold induction, maximal effect of agonist [1]: 10.38 fold; HPS3 227253_at fold induction, maximal effect of agonist [1]: 21.01 fold; HSXIAPAF1 228617_at fold induction, maximal effect of agonist [1]: 17.54 fold; IGFBP3 212143_s_at fold induction, maximal effect of agonist [1]: 16.12 fold; KRT4 213240_s_at fold induction, maximal effect of agonist [1]: 9.38 fold; OAS2 204972_at fold induction, maximal effect of agonist [1]: 15.91 fold; RNASE1 201785_at fold induction, maximal effect of agonist [1]: 49.39 fold; SLC1A1 213664_at fold induction, maximal effect of agonist [1]: 8.96 fold; TRIM31 215444_s_at fold induction, maximal effect of agonist [1]: 12.16 fold; CYP26A1 206424_at fold induction, maximal effect of agonist [2]: 220 fold and 220.23 fold; HOXA1 214639_s_at fold induction, maximal effect of agonist [2]: 95 fold; Maximal effect, Fold induction (gene ACVR1B, Genbank NM_020327, probe 208223_s_at): 2.81 fold; Maximal effect, Fold induction (gene ADFP, Genbank BC005127, probe 209122_at): 2.05 fold; Maximal effect, Fold induction (gene AKAP13, Genbank AK022014, probe 222024_s_at): 2.03 fold; Maximal effect, Fold induction (gene AMIGO, Genbank AA001423, probe 226718_at): 2.40 fold; Maximal effect, Fold induction (gene ARHGAP5, Genbank AK023014, probe 233849_s_at): 2.03 fold; Maximal effect, Fold induction (gene ARMCX3, Genbank AL121883, probe 222444_at): 2.01 fold; Maximal effect, Fold induction (gene BHLHB2, Genbank NM_003670, probe 201170_s_at): 3.46 fold; Maximal effect, Fold induction (gene CASP2, Genbank BC002427, probe 209811_at): 3.72 fold; Maximal effect, Fold induction (gene CDKL5, Genbank AI611074, probe 227004_at): 3.20 fold; Maximal effect, Fold induction (gene CHP, Genbank NM_007236, probe 207993_s_at): 2.32 fold; Maximal effect, Fold induction (gene CRTAP, Genbank AA025858, probe 227138_at): 2.07 fold; Maximal effect, Fold induction (gene CTMP, Genbank AI184512, probe 229253_at): 2.03 fold; Maximal effect, Fold induction (gene DKFZp434H2226, Genbank AL137370, probe 232893_at): 2.04 fold; Maximal effect, Fold induction (gene DKFZp434K2435, Genbank AL136855, probe 223594_at): 2.08 fold; Maximal effect, Fold induction (gene DNCL2B, Genbank AW959427, probe 238116_at): 2.02 fold; Maximal effect, Fold induction (gene DSCR1, Genbank NM_004414, probe 208370_s_at): 3.64 fold; Maximal effect, Fold induction (gene DUSP3, Genbank NM_004090, probe 201538_s_at): 2.94 fold; Maximal effect, Fold induction (gene DUSP16, Genbank AY038927, probe 1555399_a_at): 2.30 fold; Maximal effect, Fold induction (gene FLJ10996, Genbank NM_019044, probe 219774_at): 2.02 fold; Maximal effect, Fold induction (gene FLJ11196, Genbank NM_018357, probe 218651_s_at): 2.24 fold; Maximal effect, Fold induction (gene FLJ30656, Genbank BF197707, probe 212529_at): 2.09 fold; Maximal effect, Fold induction (gene FLJ32096, Genbank AK056658, probe 1555870_at): 2.98 fold; Maximal effect, Fold induction (gene FOXO3A, Genbank N25732, probe 204131_s_at): 2.53 fold; Maximal effect, Fold induction (gene GALNT7, Genbank BF699855, probe 222587_s_at): 2.51 fold; Maximal effect, Fold induction (gene GUCY1B2, Genbank NM_004129, probe 220506_at): 2.63 fold; Maximal effect, Fold induction (gene HIG2, Genbank NM_013332, probe 218507_at): 2.19 fold; Maximal effect, Fold induction (gene HNRPL, Genbank X16135, probe 35201_at): 2.16 fold; Maximal effect, Fold induction (gene INPP1, Genbank NM_002194, probe 202794_at): 2.01 fold; Maximal effect, Fold induction (gene INSIG1, Genbank BG292233, probe 201626_at): 2.04 fold; Maximal effect, Fold induction (gene JMJD3, Genbank AB002344, probe 41386_i_at): 2.48 fold; Maximal effect, Fold induction (gene KIAA1219, Genbank BG236163, probe 221738_at): 2.03 fold; Maximal effect, Fold induction (gene LCP1, Genbank J02923, probe 208885_at): 2.25 fold; Maximal effect, Fold induction (gene LGALS8, Genbank L78132, probe 208935_s_at): 2.79 fold; Maximal effect, Fold induction (gene LOC23117, Genbank AL047052, probe 235060_at): 2.00 fold; Maximal effect, Fold induction (gene LOC55971, Genbank AA496034, probe 227372_s_at): 2.09 fold; Maximal effect, Fold induction (gene LOC158402, Genbank BE504242, probe 236769_at): 2.00 fold; Maximal effect, Fold induction (gene LOC284408, Genbank AW467077, probe 235779_at): 2.03 fold; Maximal effect, Fold induction (gene MAML2, Genbank AI769569, probe 235457_at): 3.92 fold; Maximal effect, Fold induction (gene MAP3K1, Genbank AA541479, probe 225927_at): 2.05 fold; Maximal effect, Fold induction (gene MDM4, Genbank NM_002393, probe 205655_at): 2.06 fold; Maximal effect, Fold induction (gene MGC9850, Genbank BE378670, probe 224857_s_at): 2.58 fold; Maximal effect, Fold induction (gene MICAL2, Genbank BE965029, probe 212473_s_at): 2.01 fold; Maximal effect, Fold induction (gene MT1X, Genbank NM_005952, probe 208581_x_at): 3.10 fold; Maximal effect, Fold induction (gene NEDD9, Genbank AL136139, probe 202149_at): 2.24 fold; Maximal effect, Fold induction (gene NQO1, Genbank AI039874, probe 201467_s_at): 2.56 fold; Maximal effect, Fold induction (gene NR3C1, Genbank AI432196, probe 201865_x_at): 2.08 fold; Maximal effect, Fold induction (gene PARVA, Genbank NM_018222, probe 217890_s_at): 2.17 fold; Maximal effect, Fold induction (gene PRDM15, Genbank AP001745, probe 225539_at): 2.04 fold; Maximal effect, Fold induction (gene PRSS23, Genbank NM_007173, probe 202458_at): 2.05 fold; Maximal effect, Fold induction (gene PSMD7, Genbank AW361702, probe 238738_at): 2.04 fold; Maximal effect, Fold induction (gene PTK9, Genbank N25562, probe 214008_at): 2.05 fold; Maximal effect, Fold induction (gene QDPR, Genbank BC000576, probe 209123_at): 2.02 fold; Maximal effect, Fold induction (gene S100P, Genbank NM_005980, probe 204351_at): 2.33 fold; Maximal effect, Fold induction (gene SGPL1, Genbank NM_003901, probe 208381_s_at): 2.14 fold; Maximal effect, Fold induction (gene SLC35D2, Genbank AJ005866, probe 213083_at): 2.73 fold; Maximal effect, Fold induction (gene SMAD5, Genbank AI439752, probe 235451_at): 2.30 fold; Maximal effect, Fold induction (gene STYX, Genbank BG390493, probe 244030_at): 2.01 fold; Maximal effect, Fold induction (gene SUOX, Genbank NM_000456, probe 1553030_a_at): 2.05 fold; Maximal effect, Fold induction (gene TACSTD2, Genbank J04152, probe 202286_s_at): 2.17 fold; Maximal effect, Fold induction (gene TEAD2, Genbank AA337048, probe 238323_at): 2.81 fold; Maximal effect, Fold induction (gene TGFB2, Genbank AU145950, probe 228121_at): 2.04 fold; Maximal effect, Fold induction (gene TLE3, Genbank AI567426, probe 212769_at): 2.72 fold; Maximal effect, Fold induction (gene TMEM42, Genbank BF056095, probe 226361_at): 2.47 fold; Maximal effect, Fold induction (gene TNFAIP2, Genbank NM_006291, probe 202510_s_at): 2.41 fold; Maximal effect, Fold induction (gene TRIO, Genbank AV718192, probe 209012_at): 2.07 fold; Maximal effect, Fold induction (gene UROS, Genbank NM_000375, probe 203031_s_at): 2.13 fold; Maximal effect, Fold induction (gene USP24, Genbank BF444943, probe 212381_at): 2.01 fold; Maximal effect, Fold induction (gene VHL, Genbank BF972755, probe 1559227_s_at): 2.05 fold; Maximal effect, Fold induction (gene WIG1, Genbank NM_022470, probe 219628_at): 2.30 fold; Maximal effect, Fold induction (gene ZNF26, Genbank BC046206, probe 1555325_s_at): 2.03 fold; Maximal effect, Fold induction (gene ZNF281, Genbank AA121673, probe 228785_at): 2.28 fold; Maximal effect, Fold induction (gene ZNF286, Genbank BM968434, probe 1557684_at): 2.29 fold

— US20060217305A1, “Induction of tumor cell senescence by retinoid receptor agonists and antagonists” (Ordway Research Institute, Inc., priority 2005, published 2006)
